Measured values from article PMC10364322, “Evaluation of chronic drug-induced electrophysiological and cytotoxic effects using human-induced pluripotent stem cell-derived cardiomyocytes (hiPSC-CMs)” (Frontiers in Pharmacology, 2023).
Read-outs that look alike come from different tables or passages of the source.

System: hiPSC-CMs (iCell-Cardiomyocytes^2)
Procedure, shortened: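 Spontaneous field potentials and impedance recorded by MEA at 37°C, 5% CO2 in hiPSC-CM monolayers (50 K/well, fibronectin-coated), 5-min baseline before compound; final DMSO 0.1%. Values are percent change from baseline, mean ± SD, compared with DMSO by Wilcoxon-Mann Whitney, interpreted against DMSO tolerance intervals.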

CCN(CC)CCNC(=O)c1c(C)[nH]c(/C=C2\C(=O)Nc3ccc(F)cc32)c1C [Sunitinib]
BR (beating rate), % change from baseline (0.03 µM, 2h): 0±2% | FPD (field-potential duration), % change from baseline (0.03 µM, 2h): 5.5±1.5% | FPDc (field-potential duration corrected by beat-rate), % change from baseline (0.03 µM, 2h): 5.3±1.7% | BR (beating rate), % change from baseline (0.03 µM, 24h): -2±3% | FPD (field-potential duration), % change from baseline (0.03 µM, 24h): 11±4.2% | FPDc (field-potential duration corrected by beat-rate), % change from baseline (0.03 µM, 24h): 10.1±3.1% | BR (beating rate), % change from baseline (0.03 µM, 48h): -13±2% | FPD (field-potential duration), % change from baseline (0.03 µM, 48h): 20.5±2.7% | FPDc (field-potential duration corrected by beat-rate), % change from baseline (0.03 µM, 48h): 14.9±1.9 % | BR (beating rate), % change from baseline (0.03 µM, 72h): -10±2% | FPD (field-potential duration), % change from baseline (0.03 µM, 72h): 19.2±2% | FPDc (field-potential duration corrected by beat-rate), % change from baseline (0.03 µM, 72h): 15±1.8% | BR (beating rate), % change from baseline (0.03 µM, 96h): -18±1% | FPD (field-potential duration), % change from baseline (0.03 µM, 96h): 27.4±1.8% | FPDc (field-potential duration corrected by beat-rate), % change from baseline (0.03 µM, 96h): 19.3±1.7% | BR (beating rate), % change from baseline (0.1 µM, 2h): -5±1% | FPD (field-potential duration), % change from baseline (0.1 µM, 2h): 12.2±1.2 % | FPDc (field-potential duration corrected by beat-rate), % change from baseline (0.1 µM, 2h): 10.3±1 % | BR (beating rate), % change from baseline (0.1 µM, 24h): -8±4% | FPD (field-potential duration), % change from baseline (0.1 µM, 24h): 25.6±6.7 % | FPDc (field-potential duration corrected by beat-rate), % change from baseline (0.1 µM, 24h): 21.9±5 % | BR (beating rate), % change from baseline (0.1 µM, 48h): -19±2 % | FPD (field-potential duration), % change from baseline (0.1 µM, 48h): 35.8±4.6 % | FPDc (field-potential duration corrected by beat-rate), % change from baseline (0.1 µM, 48h): 26.3±3.6 % | BR (beating rate), % change from baseline (0.1 µM, 72h): -17±2 % | FPD (field-potential duration), % change from baseline (0.1 µM, 72h): 36.3±3.3 % | FPDc (field-potential duration corrected by beat-rate), % change from baseline (0.1 µM, 72h): 28.2±2.6 % | BR (beating rate), % change from baseline (0.1 µM, 96h): -24±1% | FPD (field-potential duration), % change from baseline (0.1 µM, 96h): 49±7.7 % | FPDc (field-potential duration corrected by beat-rate), % change from baseline (0.1 µM, 96h): 36.1±6.4 % | time point from which EAD-like events occurred (0.3 µM): 24 h | BR (beating rate), % change from baseline (0.3 µM, 2h): -15±2 % | FPD (field-potential duration), % change from baseline (0.3 µM, 2h): 32.5±1.7 % | FPDc (field-potential duration corrected by beat-rate), % change from baseline (0.3 µM, 2h): 25.4±1.4 % | BR (beating rate), % change from baseline (0.3 µM, 24h): -29±5 % | FPD (field-potential duration), % change from baseline (0.3 µM, 24h): 103.1±24.2 % | FPDc (field-potential duration corrected by beat-rate), % change from baseline (0.3 µM, 24h): 80.7±18.4 % | BR (beating rate), % change from baseline (0.3 µM, 48h): -39±4 % | FPD (field-potential duration), % change from baseline (0.3 µM, 48h): 120.5±24.7 % | FPDc (field-potential duration corrected by beat-rate), % change from baseline (0.3 µM, 48h): 87.2±17.5 % | BR (beating rate), % change from baseline (0.3 µM, 72h): -38±1 % | FPD (field-potential duration), % change from baseline (0.3 µM, 72h): 135.9±4.7 % | FPDc (field-potential duration corrected by beat-rate), % change from baseline (0.3 µM, 72h): 101±3.5 % | BR (beating rate), % change from baseline (0.3 µM, 96h): -44±2 % | FPD (field-potential duration), % change from baseline (0.3 µM, 96h): 152.4±12.3 % | FPDc (field-potential duration corrected by beat-rate), % change from baseline (0.3 µM, 96h): 108.1±8 % | BR (beating rate), % change from baseline (1 µM, 2h): -49±4 % | FPD (field-potential duration), % change from baseline (1 µM, 2h): 182.8±8.5 % | FPDc (field-potential duration corrected by beat-rate), % change from baseline (1 µM, 2h): 128.9±4.9 % | BR (beating rate), % change from baseline (1 µM, 24h): -67±3 % | BR (beating rate), % change from baseline (1 µM, 48h): -68±4 % | BR (beating rate), % change from baseline (1 µM, 72h): -70±0 %
